Data reported in US5977169A, “Substituted tetronic acids useful for treating HIV and other retroviruses” (priority 1997, dated 1999).

How the values were obtained:
HIV-1 protease = target: T1, HIV-1 protease (Human immunodeficiency virus type 1 group M subtype B, UniProt P04585); experiment: In vitro HIV protease inhibitory assay (fluorescently labeled substrate, avidin-polystyrene particles); format: biochemical; conditions: for inhibition at 3.3 µM: HIV-1 dose 3.3 μM; for inhibition at 10 µM: HIV-1 dose 10.0 μM; for inhibition at 30 µM: HIV-1 dose 30.0 μM; for inhibition at 1.1 µM: HIV-1 dose 1.1 μM
T1 construct: The protease (or proteinase) enzyme, consisting of only 99 amino acids
Outline: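 Biotinylated, FITC-labelled peptide substrate cleaved by HIV-1 protease for 1 h at room temperature in the dark, in 0.1 M sodium acetate pH 5.5 with 1.0 M NaCl and 0.05% NP-40. Product separated from substrate with avidin-polystyrene beads and filtration; fluorescence read as percent inhibition at stated compound concentrations.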

HIV-1IIIB = experiment: Inhibition of retroviral replication in human T-cell lines, e.g., MT4 and H9, infected with HIV-1IIIB; format: cell-based

SMILES	inhibition at 3.3 µM (HIV-1 protease) [%]	inhibition at 10 µM (HIV-1 protease) [%]	inhibition at 30 µM (HIV-1 protease) [%]	inhibition at 1.1 µM (HIV-1 protease) [%]	inhibition at 0.37 µM (HIV-1 protease; HIV-1 dose 0.37 μM) [%]	inhibition at 1 µM (HIV-1 protease; HIV-1 dose 1.0 μM) [%]	inhibition at 100 µM (HIV-1 protease; HIV-1 dose 100.0 μM) [%]	inhibition of retroviral replication (HIV-1IIIB)
CCCC1(CCC)OC(=O)C(C(c2cccc(NS(=O)(=O)c3cn(C)cn3)c2)C(C)C)=C1O (stereo not shown) [IX-24, 1H-Imidazole-4-sulfonamide, N-(3-(1-(4-hydroxy-2-oxo-5,5-dipropyl-2,5-dihydro-furan-3-yl)-2-methyl-propyl)-phenyl)-1-methyl-]	102	101	102	–	–	–	–	found to inhibit retroviral replication
CCCCC1OC(=O)C(C(c2ccccc2)C2CC2)=C1O (stereo not shown) [BX-11, 2(5H)-Furanone, 5-butyl-3-(cyclopropylphenylmethyl)-4-hydroxy-]	45.1	78.3	93.4	–	–	–	–	–
CCCC(c1ccccc1)C1OC(=O)C(C(c2ccccc2)C2CC2)=C1O (stereo not shown) [GX-7, 2(5H)-Furanone, 3-(cyclopropylphenylmethyl)-4-hydroxy-5-(1-phenylbutyl)-]	92.7	103	102	–	–	–	–	–
CCCC1(CCC)OC(=O)C(C(c2cccc(NS(=O)(=O)c3cccc4cccnc34)c2)C2CC2)=C1O (stereo not shown) [IX-18]	102	125	106	–	–	–	–	–
CCCCC(CCc1ccccc1)C1OC(=O)C(C(c2ccccc2)C2CC2)=C1O (single isomer, unassigned) [GX-1, 2(5H)-Furanone, 3-(cyclopropylphenylmethyl)-4-hydroxy-5-(1-(2-phenyl-ethyl)pentyl)-]	74.6	89.2	74	–	–	–	–	–
COC(=O)CC(CCc1ccccc1)C1OC(=O)C(C(c2ccccc2)C2CC2)=C1O (stereo not drawn) [HX-1, 2-Furanpropanoic acid, 4-(cyclopropylphenyl-methyl)-2,5-dihydro-3-hydroxy-5--oxo-β-(2-phenylethyl)-, methyl ester]	62.1	90.9	–	37.6	–	–	–	–
CCC(C1=C(O)C(Cc2ccccc2)OC1=O)c1ccccc1 (stereo not shown) [BX-9, 2(5H)-Furanone, 4-hydroxy-5-(phenylmethyl)-3-(1-phenylpropyl)-]	50.1	75.1	86.1	–	–	–	–	–
CCCCC1(CCCC)OC(=O)C(C(c2ccccc2)C2CC2)=C1O (stereo not shown) [BX-15, 2(5H)-Furanone, 5,5-dibutyl-3-(cyclopropylphenylmethyl)-4-hydroxy-]	115	118	122	–	–	–	–	–
C=CC(C1=C(O)C(CCCc2ccccc2)OC1=O)c1ccccc1 (stereo not shown) [FX-3, 2(5H)-Furanone, 4-hydroxy-3-(1-phenyl-2-propenyl)-5-(3-phenylpropyl)-]	38.6	66.3	68.6	–	–	–	–	–
O=C1OC(CCCc2ccccc2)C(O)=C1C(c1ccccc1)c1ccccc1 (stereo not shown) [FX-2, 2(5H)-Furanone, 3-(diphenylmethyl)-4-hydroxy-5-(3-phenylpropyl)-]	41.5	69	77.3	–	–	–	–	–
O=C1OC(CCCc2ccccc2)(CCc2ccccc2)C(O)=C1C(c1ccccc1)C1CC1 (stereo not shown) [DX-18, 2(5H)-Furanone, 3-(cyclopropylphenylmethyl)-4-hydroxy-5-(2-phenyl-ethyl)-5-(3-phenylpropyl)-]	113	114	101	–	–	–	–	–
CC(C)C1(CCCc2ccccc2)OC(=O)C(C(c2ccccc2)C2CC2)=C1O (stereo not shown) [DX-17, 2(5H)-Furanone, 3-(cyclopropylphenylmethyl)-4-hydroxy-5-(1-methylethyl)-5-(3--phenylpropyl)-]	103	97.6	96	–	–	–	–	–
O=C1OC(CCCc2ccccc2)(Cc2ccccc2)C(O)=C1C(c1ccccc1)C1CC1 (stereo not shown) [DX-15, 2(5H)-Furanone, 3-(cyclopropylphenylmethyl)-4-hydroxy-5-(phenylmethyl)-5-(3--phenylpropyl)-]	108	116	114	–	–	–	–	–
CCC(C)C1(CCCc2ccccc2)OC(=O)C(C(c2ccccc2)C2CC2)=C1O (stereo not shown) [DX-19, 2(5H)-Furanone, 3-(cyclopropylphenylmethyl)-4-hydroxy-5-(1-methylpropyl)--5-(3-phenylpropyl)-]	100	–	–	103	100	–	–	–
O=C1OC(Cc2ccccc2)C(O)=C1C(c1ccccc1)C1CC1 (stereo not shown) [BX-1, 5H-Furan-2-one, 5-benzyl-3-cyclopropylphenylmethyl-4-hydroxy-]	–	80.1	–	–	–	18.7	90.5	–

Continued, in another order:

inhibition at 3.3 µM (HIV-1 protease) [%]	inhibition at 10 µM (HIV-1 protease) [%]	inhibition at 30 µM (HIV-1 protease) [%]	inhibition at 1.1 µM (HIV-1 protease) [%]	inhibition at 0.37 µM (HIV-1 protease; HIV-1 dose 0.37 μM) [%]	inhibition at 1 µM (HIV-1 protease; HIV-1 dose 1.0 μM) [%]	inhibition at 100 µM (HIV-1 protease; HIV-1 dose 100.0 μM) [%]	SMILES	inhibition of retroviral replication (HIV-1IIIB)
56.9	87.7	103	–	–	–	–	O=C1O/C(=C\c2ccccc2)C(O)=C1C(c1ccccc1)C1CC1 (stereo not shown) [JX-2, 5-Benzylidene-3-(cyclopropyl-phenyl-methyl)-4-hydroxy-5H-furan-2-one]	–
99.2	100	96.7	–	–	–	–	CCCC1(CCC)OC(=O)C(C(c2cccc(NS(=O)(=O)c3nccn3C)c2)C2CC2)=C1O (stereo not shown) [IX-37, 1-Methyl-1H-imidazole-2-sulfonamide, N-(3-(cyclopropyl(2,5-dihydro-4-hydroxy-2-oxo-5,5-dipropyl-3-furanyl)methyl)phenyl)-]	–
101	102	106	–	–	–	–	CCCC1(CCC)OC(=O)C(C(c2cccc(NS(=O)(=O)c3nc4ccccc4[nH]3)c2)C2CC2)=C1O (stereo not shown) [IX-51]	–
99	99.4	97.6	–	–	–	–	CCC1CCCCC12OC(=O)C(C(c1ccccc1)C1CC1)=C2O (single isomer, unassigned) [IX-33, 1-Oxaspiro[4.5]dec-3-en-2-one, 3-(cyclopropylphenylmethyl)-4-hydroxy-6-ethyl-]	–
43.2	65.3	96.3	–	–	–	–	CC/C=C1\OC(=O)C(C(c2ccccc2)C2CC2)=C1O (stereo not shown) [JX-3, 3-(Cyclopropyl-phenyl-methyl)-4-hydroxy-5-propylidene-5H-furan-2-one]	–
97.1	96.6	94.3	–	–	–	–	CCCC1(Cc2ccccc2)OC(=O)C(C(c2cccc(NS(=O)(=O)c3cn(C)cn3)c2)C(C)C)=C1O (stereo not shown) [IX-30]	–
105	117	106	–	–	–	–	CCCC1(Cc2ccccc2)OC(=O)C(C(c2cccc(NS(=O)(=O)c3ccccc3)c2)C(C)C)=C1O (stereo not shown) [IX-27, Benzenesulfonamide, N-(3-(1-(2,5-dihydro-4-hydroxy-2-oxo-5--(phenylmethyl)-5-propyl-3-furanyl)-2-methylpropyl)phenyl)-]	–
90.3	87	81.7	–	–	–	–	O=C1OC(Cc2ccccc2)(Cc2ccccc2)C(O)=C1C(c1cccc(NS(=O)(=O)c2cccc3cccnc23)c1)C1CC1 (stereo not shown) [IX-46, 8 Quinolinesulfonamide, N-(3-(cyclopropyl-(5,5-dibenzyl-4-hydroxy-2-oxo-2,5-dihydro-3-furanyl)methyl)phenyl)-]	–
102	104	92	–	–	–	–	Cn1cnc(S(=O)(=O)Nc2cccc(C(C3=C(O)C(Cc4ccccc4)(Cc4ccccc4)OC3=O)C(C)(C)C)c2)c1 (stereo not shown) [IX-53]	–
